The record followed here is patent US10076519B2 (CYTOKINETICS, INC., priority 2010, dated 2018).

The subject of one test is rabbit skeletal myofibrils (fast skeletal myofibrils). The experiment in a line: Activation of fast skeletal myofibrils (PUMA assay, PK/LDH-coupled ATPase at pCa25). In kind it is biochemical. Particulars: AC1.4 determined according to the procedure of Example 39; reported as class symbols. The method, then: Preparation of Fast Skeletal Myofibrils.
Rabbit skeletal myofibrils were prepared based upon the method of Herrmann et al. (Biochem. 32(28):7255-7263(1993). Myofibrils were prepared from rabbit psoas muscle purchased from Pel-Freez Biologicals (Arkansas) within 2 days of ordering, stored on ice. Minced muscle was homogenized in 10 volumes of ice-cold “standard” buffer (50 mM Tris, pH 7.4, 0.1M potassium acetate, 5 mM KCl, 2 mM DTT, 0.2 mM PMSF, 10 μM leupeptin, 5 μM pepstatin, and 0.5 mM sodium azide) containing 5 mM EDTA and 0.5% Triton X-100 using an Omni-Macro homogenizer. Myofibrils were recovered by low speed centrifugation (3000 rpm for 10 minutes) and washed 2 times in the Triton X-100 containing buffer to ensure removal of cellular membrane. Following the Triton washes, myofibrils were washed 3 times in “standard” buffer containing 2 mM magnesium acetate. A final wash in assay buffer (12 mM PIPES, pH 6.8, 60 mM KCl, 1 mM DTT) was performed and brought to 10% sucrose for flash freezing in liquid nitrogen and storage at −80° C.
Activation of Fast Skeletal Myofibrils.
Fast fiber activators were identified by measuring the enzymatic activity of muscle myofibril preparations using the proprietary PUMA™ (see, e.g., U.S. Pat. Nos. 6,410,254, 6,743,599, 7,202,051, and 7,378,254) assay system. Myofibril preparations consisted of rabbit skeletal muscle (approximately 90% fast fibers) that had been mechanically homogenized and washed with a detergent (triton X-100) to remove cellular membranes. This preparation retained all of the sarcomeric components in a native conformation and the enzymatic activity was still regulated by calcium. Compounds were tested using a myofibril suspension and a level of calcium sufficient to increase enzymatic activity of the myofibrils to 25% of their maximal rate (termed pCa25). Enzymatic activity was tracked via a pyruvate kinase and lactate dehydrogenase-coupled enzyme system. This assay regenerates myosin-produced ADP into ATP by oxidizing NADH, producing an absorbance change at 340 nm. The buffering system was 12 mM Pipes, 2 mM MgCl2, 1 mM DTT at pH 6.8 (PM12 buffer).
Using procedures similar to those described herein, utilizing reagents and intermediates commercially available (e.g., Sigma-Aldrich, St. Louis, Mo.) or readily synthesized by one of skill in the art, the compounds in Table 2 were synthesized, characterized and tested. AC1.4 values were determined according to the procedure described in Example 39, and the reported median AC1.4 values are as follows: A=<1 uM; B=1-10 uM; C=10-20 uM; D=>20 uM.
`CC(C)(CNc1ccc(-c2cccc(C#N)c2)nn1)OCc1ccccc1`: the “Mean AC1.4” value is on record as “D (D=>20 uM)”.

With `CC(C)(CNc1ccc(-c2cccc(C(N)=O)c2)nn1)OCc1ccccc1`, the “Mean AC1.4” value is reported as “D (D=>20 uM)”.

As to `CC(Nc1ccc(-c2cccc(C(N)=O)c2)nn1)c1ccc(F)cc1` (centres unmarked), the “Mean AC1.4” value is recorded as “C (C=10-20 uM)”.

As to `N=C(N)c1cccc(-c2ccc(NCC3(c4ncccc4F)CCC3)nn2)c1`, the “Mean AC1.4” value is given as “D (D=>20 uM)”.

Consider `NC(=O)c1cccc(-c2ccc(NCC3(c4cnccn4)CCC3)nn2)c1`, for which the “Mean AC1.4” value is given as “D (D=>20 uM)”.

Consider `CC(Nc1ccc(-c2cccc(C(N)=O)c2)nn1)c1ccccc1` (centres unmarked), for which the “Mean AC1.4” value is given as “D (D=>20 uM)”.

As to `O=C1Cc2c(cccc2-c2ccc(NCC3(c4ncccc4F)CCC3)nn2)N1`, the “Mean AC1.4” value is reported as “B (B=1-10 uM)”.

For the molecule `CC(C)(CNc1ccc(-c2ccc(=O)[nH]c2)nn1)c1ccc(F)cc1`, the “Mean AC1.4” value was “B (B=1-10 uM)”.

`CC(C)(CNc1ccc(-c2cnc(=O)[nH]c2)nn1)c1ccc(F)cc1`: the “Mean AC1.4” value is given as “D (D=>20 uM)”.

As for `CC(C)(CNc1ccc(-c2ccc3[nH]c(=O)[nH]c3c2)nn1)c1ccc(F)cc1`, the “Mean AC1.4” value is “A (A=<1 uM)”.

Consider `NC(=O)c1cc(C(N)=O)cc(-c2ccc(NCC3(c4ncccc4F)CCC3)nn2)c1`, for which the “Mean AC1.4” value is given as “B (B=1-10 uM)”.

For `O=C(O)c1cc(C(=O)O)cc(-c2ccc(NCC3(c4ncccc4F)CCC3)nn2)c1`, the “Mean AC1.4” value was “D (D=>20 uM)”.

Take `CC(=O)Nc1cccc(-c2ccc(NCC3(c4ncccc4F)CCC3)nn2)c1`: the “Mean AC1.4” value is reported as “B (B=1-10 uM)”.

On to `CC(=O)Nc1nc(-c2ccc(NCC3(c4ncccc4F)CCC3)nn2)c[nH]1`, for which the “Mean AC1.4” value was “D (D=>20 uM)”.

`COC(=O)NCc1ccc(-c2ccc(NCC(C)(C)c3ccc(F)cc3)nn2)cn1`: the “Mean AC1.4” value is “C (C=10-20 uM)”.

Consider `OCc1ccccc1-c1ccc(NCC2(c3ncccc3F)CCC2)nn1`, for which the “Mean AC1.4” value was “B (B=1-10 uM)”.

In the case of `Fc1cccnc1C1(CNc2ccc(-c3ccccc3OC(F)(F)F)nn2)CCC1`, the “Mean AC1.4” value is listed as “A (A=<1 uM)”.

On to `NC(=O)Nc1cccc(-c2ccc(NCC3(c4ncccc4F)CCC3)nn2)c1`, for which the “Mean AC1.4” value is recorded as “A (A=<1 uM)”.

With `N=C(N)Nc1n[nH]c2ccc(-c3ccc(NCC4(c5ncccc5F)CCC4)nn3)cc12`, the “Mean AC1.4” value is listed as “B (B=1-10 uM)”.

Still in this test, the particulars now being: median AC1.4 class, procedure of Example 39.
In the case of `NC(=O)c1cccc(-c2ccc(NC3(c4ncccc4OC(F)F)CCC3)nn2)c1`, the “Mean AC1.4” value is recorded as “D (D=>20 uM)”.

Turning to `NC(=O)c1ccc(F)c(-c2ccc(NC3(c4ncccc4OC(F)F)CCC3)nn2)c1`, the “Mean AC1.4” value was “C (C=10-20 uM)”.

For the molecule `NC(=O)c1ccc(F)c(-c2ccc(NC3(c4ncccc4Br)CCC3)nn2)c1`, the “Mean AC1.4” value is “A (A=<1 uM)”.

For `NC(=O)c1ccc(C2(Nc3ccc(-c4cccc(C(N)=O)c4)nn3)CCC2)cc1`, the “Mean AC1.4” value is on record as “D (D=>20 uM)”.

As to `N#Cc1ccnc(C2(Nc3ccc(-c4cc(C(N)=O)ccc4F)nn3)CCC2)c1`, the “Mean AC1.4” value is “D (D=>20 uM)”.

With `NC(=O)c1ccc(F)c(-c2ccc(NC3(c4ccc(OC(F)F)cn4)CCC3)nn2)c1`, the “Mean AC1.4” value is reported as “D (D=>20 uM)”.

On to `N#Cc1ccc(C2(Nc3ccc(-c4cc(C(N)=O)ccc4F)nn3)CCC2)nc1`, for which the “Mean AC1.4” value is given as “D (D=>20 uM)”.

As for `NC(=O)c1cccc(-c2ccc(NC3(c4cccc(OC(F)F)n4)CCC3)nn2)c1`, the “Mean AC1.4” value was “A (A=<1 uM)”.

With `NC(=O)c1ccc(F)c(-c2ccc(NC3(c4cccc(OC(F)F)n4)CCC3)nn2)c1`, the “Mean AC1.4” value was “A (A=<1 uM)”.

On to `N#Cc1cccc(C2(Nc3ccc(-c4cc(C(N)=O)ccc4F)nn3)CCC2)n1`, for which the “Mean AC1.4” value was “B (B=1-10 uM)”.

Consider `COc1cccc(C2(Nc3ccc(-c4cccc(C(N)=O)c4)nn3)CCC2)n1`, for which the “Mean AC1.4” value is listed as “B (B=1-10 uM)”.

Take `NC(=O)c1ccc(Cl)c(-c2ccc(NC3(c4ncccc4F)CCC3)nn2)c1`: the “Mean AC1.4” value is given as “B (B=1-10 uM)”.

For the molecule `CC(C)(Nc1ccc(-c2cc(C(N)=O)ccc2F)nn1)c1cccc(=O)[nH]1`, the “Mean AC1.4” value was “D (D=>20 uM)”.

On to `N#Cc1ccc(F)c(-c2ccc(NC3(c4ncccc4F)CCC3)nn2)c1`, for which the “Mean AC1.4” value is listed as “B (B=1-10 uM)”.

Consider `NC(=O)c1ccc(F)c(-c2ccc(NC3(c4ncccc4F)CCCC3)nn2)c1`, for which the “Mean AC1.4” value is reported as “A (A=<1 uM)”.

Turning to `NC(=O)c1ccc(F)c(-c2ccc(NC3(c4ncccc4O)CCC3)nn2)c1`, the “Mean AC1.4” value is recorded as “D (D=>20 uM)”.

Turning to `COc1cccnc1C1(Nc2ccc(-c3cc(C(N)=O)ccc3F)nn2)CCC1`, the “Mean AC1.4” value is “C (C=10-20 uM)”.

Regarding `O=C(O)c1ccc(F)c(-c2ccc(NC3(c4ccc(F)cc4)CCC3)nn2)c1`, the “Mean AC1.4” value was “B (B=1-10 uM)”.

Take `NC(=O)c1ccc(F)c(-c2ccc(NC3(c4ccc(O)cn4)CCC3)nn2)c1`: the “Mean AC1.4” value was “D (D=>20 uM)”.

For the molecule `COc1ccc(C2(Nc3ccc(-c4cc(C(N)=O)ccc4F)nn3)CCC2)nc1`, the “Mean AC1.4” value is recorded as “D (D=>20 uM)”.

Regarding `COc1cccc(C2(Nc3ccc(-c4cc(C(N)=O)ccc4F)nn3)CCC2)n1`, the “Mean AC1.4” value is recorded as “A (A=<1 uM)”.

Consider `CC1(Nc2ccc(-c3cc(C(N)=O)ccc3F)nn2)CCC1`, for which the “Mean AC1.4” value is reported as “D (D=>20 uM)”.

`NC(=O)[C@H]1C[C@@H]1c1ccc(NCC2(c3ncccc3F)CCC2)nn1`: the “Mean AC1.4” value is recorded as “D (D=>20 uM)”.

With `NC(=O)[C@@H]1C[C@@H]1c1ccc(NCC2(c3ncccc3F)CCC2)nn1`, the “Mean AC1.4” value is given as “D (D=>20 uM)”.

On to `CS(=O)(=O)Nc1cccc(-c2ccc(NC3(c4ncccc4OC(F)F)CCC3)nn2)c1`, for which the “Mean AC1.4” value is given as “C (C=10-20 uM)”.

With `CS(=O)(=O)Nc1cccc(-c2ccc(NC3(c4ncccc4F)CCC3)nn2)c1`, the “Mean AC1.4” value is reported as “B (B=1-10 uM)”.

Consider `CS(=O)(=O)Nc1cccc(-c2ccc(NC3(c4cccc(OC(F)F)n4)CCC3)nn2)c1`, for which the “Mean AC1.4” value is “A (A=<1 uM)”.

Take `COc1cccc(C2(Nc3ccc(-c4cccc(NS(C)(=O)=O)c4)nn3)CCC2)n1`: the “Mean AC1.4” value is recorded as “B (B=1-10 uM)”.

For the molecule `CNC(=O)c1cc(-c2ccc(NC3(c4ccc(F)cc4)CCC3)nn2)ccn1`, the “Mean AC1.4” value was “B (B=1-10 uM)”.

Take `CC(C)(O)CNC(=O)c1ccc(F)c(-c2ccc(NC3(c4ccc(F)cc4)CCC3)nn2)c1`: the “Mean AC1.4” value is “B (B=1-10 uM)”.

As to `NC(=O)NC1CC(c2ccc(NCC3(c4ncccc4F)CCC3)nn2)C1` (centres unmarked), the “Mean AC1.4” value is on record as “C (C=10-20 uM)”.

As for `NC(=O)N[C@H]1C[C@@H](c2ccc(NCC3(c4ncccc4F)CCC3)nn2)C1`, the “Mean AC1.4” value is recorded as “B (B=1-10 uM)”.

For `NC(=O)Nc1ccc(-c2ccc(NC3(c4ncccc4F)CCC3)nn2)c(F)c1`, the “Mean AC1.4” value is listed as “B (B=1-10 uM)”.

On to `NC(=O)Nc1ccc(-c2ccc(NC3(c4ncccc4F)CCC3)nn2)cc1`, for which the “Mean AC1.4” value was “B (B=1-10 uM)”.

Turning to `NC(=O)NC1CC=C(c2ccc(NCC3(c4ncccc4F)CCC3)nn2)CC1` (centres unmarked), the “Mean AC1.4” value is given as “B (B=1-10 uM)”.

Consider `NS(=O)(=O)Nc1ccc(-c2ccc(NC3(c4ncccc4F)CCC3)nn2)c(F)c1`, for which the “Mean AC1.4” value was “B (B=1-10 uM)”.

Turning to `NS(=O)(=O)Nc1ccc(F)c(-c2ccc(NC3(c4ncccc4F)CCC3)nn2)c1`, the “Mean AC1.4” value is “B (B=1-10 uM)”.

Take `CCOC(=O)C(C(=O)OCC)c1ccc(NCC2(c3ncccc3F)CCC2)nn1`: the “Mean AC1.4” value is recorded as “D (D=>20 uM)”.

With `CCOC(=O)/C=C/c1ccc(NC2(c3ncccc3F)CCC2)nn1`, the “Mean AC1.4” value is given as “D (D=>20 uM)”.

As to `CCOC(=O)/C=C/c1ccc(NCC2(c3ncccc3F)CCC2)nn1`, the “Mean AC1.4” value was “D (D=>20 uM)”.
